Test results published in ChEMBL document CHEMBL1149656, “Respiratory syncytial virus fusion inhibitors. Part 6: an examination of the effect of structural variation of the benzimidazol-2-one heterocycle moiety” (Bioorg Med Chem Lett, 2007).
pEC50: −log10 of the molar value.

How the values were obtained:
[1] = tested on: Respiratory syncytial virus; assay: Antiviral activity against RSV Long in Hep2 cells; type: functional, organism-based; conditions: human respiratory syncytial virus, HEp-2
[2] = Cytotoxicity against human Hep2 cells; type: cell-based, HEp-2
[3] = tested on: Respiratory syncytial virus; assay: Antiviral activity against RSV Long with F1 protein K349R mutation in Hep2 cells; type: functional, organism-based; conditions: hep-2
[4] = Metabolic stability in human liver microsomes; type: ADME, Microsome
[5] = tested on: Respiratory syncytial virus; assay: Reduction of viral RNA in lungs of RSV-infected BALB/c mouse at 50 mg/kg by RT-PCR method; type: functional, Lung

Row | SMILES | pEC50 [1] | CC50 [2] [nM] | pEC50 [3] | half-life [4] [h] | log10 TCID50 [5]
1 | CC(C)CCn1c(CN2C(=O)CSc3ccccc32)nc2ccccc21 | 6.56 | 6780 |  |  | 
2 | CC(C)CCn1c(CN2C(=O)Cc3ccccc32)nc2ccccc21 | 7.49 | 8580 |  |  | 
3 | CC(C)CCn1c(CN2C(=O)C(C)(O)c3ccccc32)nc2ccccc21 (centres undefined) | 7.01 | 101000 |  |  | 
4 | CC(C)CCn1c(CN2C(=O)CS(=O)(=O)c3ccccc32)nc2ccccc21 | 7.23 | 63000 |  |  | 
5 | N#CCCCCn1c(CN2C(=O)CS(=O)(=O)c3ccccc32)nc2ccccc21 | 5.87 | > 270000 |  |  | 
6 | O=C1CSc2ccccc2N1Cc1nc2ccccc2n1CCCCF | 5.99 | > 96400 |  |  | 
7 | CC1(C)C(=O)N(Cc2nc3ccccc3n2CCCC#N)c2ccccc21 | 7.72 | > 100000 |  |  | 
8 | CC(C)CCn1c(CN2C(=O)C(CC(=O)O)c3ccccc32)nc2ccccc21 (centres undefined) | 6.15 | 16500 |  |  | 
9 | CC1(C)Sc2ccccc2N(Cc2nc3ccccc3n2CCCCF)C1=O | < 3.60 | 32600 |  |  | 
10 | CC(C)CCn1c(CN2C(=O)C(CC(=O)NCCc3ccccc3)c3ccccc32)nc2ccccc21 (centres undefined) | 6.42 | 940 |  |  | 
11 | O=c1ccc2ccccc2n1Cc1nc2ccccc2n1CCCCF | 5.64 | 103000 |  |  | 
12 | COc1cc(=O)n(Cc2nc3ccccc3n2CCCCF)c2ccccc12 | 6.68 | 59500 |  |  | 
13 | COc1cc(=O)n(Cc2nc3cc(CN)ccc3n2CCCCF)c2ccccc12 | 8.05 | 24000 | < 5.30 |  | 
14 | CCOC(=O)c1c(OC)c(=O)n(Cc2nc3ccccc3n2CCCCF)c2ccccc12 | 6.83 | 61600 |  |  | 
15 | O=C(O)c1c(O)c(=O)n(Cc2nc3ccccc3n2CCCCF)c2ccccc12 | 4.59 | > 38600 |  |  | 
16 | O=c1c(Br)cc2ccccc2n1Cc1nc2ccccc2n1CCCCF | 6.10 | 26200 |  |  | 
17 | N#CCCCCn1c(CN2C(=O)CCc3ccccc32)nc2ccccc21 | 5.96 | 27100 |  |  | 
18 | CN(C)CCn1c(CN2C(=O)CCc3ccccc32)nc2ccccc21 | 6.34 | 153000 |  |  | 
19 | Cn1c(=O)c2ccccc2n(Cc2nc3ccccc3n2CCCCO)c1=O | 7.09 | 48600 |  |  | 
20 | CNCc1ccc2c(c1)nc(Cn1c(=O)n(C3CC3)c(=O)c3ccccc31)n2CCC(C)C | 6.10 | 17900 |  |  | 
21 | CCCCNCc1ccc2c(c1)nc(Cn1c(=O)n(C3CC3)c(=O)c3ccccc31)n2CCC(C)C | < 3.72 | 4150 |  |  | 

Row | SMILES | pEC50 [1] | CC50 [2] [nM] | pEC50 [3] | half-life [4] [h] | log10 TCID50 [5]
22 | COC(=O)c1ccc2c(c1)nc(Cn1c(=O)n(C3CC3)c(=O)c3ccccc31)n2CCC(C)C | < 3.66 | 230 |  |  | 
23 | CC(C)CCn1c(Cn2c(=O)n(C3CC3)c(=O)c3ccccc32)nc2cc(CO)ccc21 | 6.50 | 62100 |  |  | 
24 | N#CCCCn1c(Cn2c(=O)n(C3CC3)c(=O)c3ccccc32)nc2ccccc21 | 6.77 | 9050 | < 6.30 |  | 
25 | CS(=O)(=O)CCCn1c(Cn2c(=O)n(CC(F)(F)F)c(=O)c3ccccc32)nc2cc(CN)ccc21 | 7.68 | > 123000 | 6.30 |  | 
26 | O=c1c2ccccc2n(Cc2nc3ccccc3n2CCCCF)c(=O)n1C1CC1 | 7.30 | 38200 |  |  | 
27 | NCc1ccc2c(c1)nc(Cn1c(=O)n(CC(F)(F)F)c(=O)c3ccccc31)n2CCCCF | 8.10 | 11800 | < 6.30 | > 1.67 | 1.6
28 | CCOC(=O)Cn1c(=O)c2ccccc2n(Cc2nc3ccccc3n2CCC(C)C)c1=O | 5.73 | 16600 |  |  | 
29 | CCOC(=O)Cn1c(=O)c2ccccc2n(Cc2nc3ccccc3n2CCn2cnnn2)c1=O | 6.54 | 8060 |  |  | 
30 | O=C(O)Cn1c(=O)c2ccccc2n(Cc2nc3ccccc3n2CCn2cnnn2)c1=O | 5.28 | 213000 |  |  | 
31 | O=C1N(Cc2nc3ccccc3n2CCCCF)c2ccccc2S(=O)(=O)N1C1CC1 | 6.36 | 111000 |  |  | 
32 | CC(C)CCn1c(Cn2c(=O)n(Cc3ccc(C(=O)O)cc3)c(=O)c3ccccc32)nc2ccccc21 | 8.05 | 19300 |  |  | 
33 | COC(=O)c1ccc(Cn2c(=O)c3ccccc3n(Cc3nc4ccccc4n3CCn3cnnn3)c2=O)cc1 | 6.77 | 25300 |  |  | 
34 | CC(C)CCn1c(CN2C(=O)N(C3CC3)S(=O)(=O)c3ccccc32)nc2cc(CN)ccc21 | 8.52 | 7030 | 7.70 |  | 
35 | CC(C)CCn1c(CN2C(=O)N(CC(=O)OC(C)(C)C)S(=O)(=O)c3ccccc32)nc2ccccc21 | 7.08 | 18400 |  |  | 
36 | CN1C(=O)N(Cc2nc3ccccc3n2CCCCO)c2ccccc2S1(=O)=O | 7.72 | 219000 |  |  | 
37 | N#CCCCn1c(Cn2c(=O)oc3ccccc32)nc2ccccc21 | 5.60 | > 300000 |  |  | 
38 | O=c1c2ccccc2n(Cc2nc3ccccc3n2CCCCO)c(=O)n1C1CC1 | 7.60 | 42600 |  |  | 
39 | O=C1CS(=O)(=O)c2ccccc2N1Cc1nc2ccccc2n1CCCCF | 6.64 | 211000 |  |  | 
40 | CC1(C)C(=O)N(Cc2nc3ccccc3n2CCCCF)c2ccccc2S1(=O)=O | 5.12 | 158000 |  |  | 
41 | NCc1ccc2c(c1)nc(Cn1c(=O)n(CC(F)(F)F)c(=O)c3ccccc31)n2CCCCO | 8.10 | 52700 | < 6.30 |  | 
42 | CC(C)CCn1c(CN2C(=O)C(Cc3ccccc3)C(=O)c3ccccc32)nc2ccccc21 (centres undefined) | 5.74 | 20100 |  |  | 

Row | SMILES | pEC50 [1] | CC50 [2] [nM] | pEC50 [3] | half-life [4] [h] | log10 TCID50 [5]
43 | O=C(O)c1ccc(Cn2c(=O)c3ccccc3n(Cc3nc4ccccc4n3CCn3cnnn3)c2=O)cc1 | 6.26 | 54700 |  |  | 
44 | CC(C)CCn1c(CN2C(=O)C(O)c3ccccc32)nc2ccccc21 (centres undefined) | 6.79 | 3310 |  |  | 
45 | CC(C)CCn1c(CN2C(=O)C(CC(=O)N(C)C)c3ccccc32)nc2ccccc21 (centres undefined) | 6.69 | 4670 |  |  | 
46 | CC(C)CCn1c(CN2C(=O)N(CC(=O)O)S(=O)(=O)c3ccccc32)nc2ccccc21 | 6.58 | 60200 |  |  | 
47 | CC(C)CCn1c(Cn2c(=O)n(CC(=O)O)c(=O)c3ccccc32)nc2ccccc21 | 5.99 | > 221000 |  |  | 
48 | CN1C(=O)N(Cc2nc3ccccc3n2CCCS(C)(=O)=O)c2ccccc2S1(=O)=O | 5.24 | 34500 |  |  | 
49 | CC(C)CCn1c(CN2C(=O)C(=O)c3ccccc32)nc2ccccc21 | 6.64 | 69800 |  |  | 
50 | Cn1c(=O)c2ccccc2n(Cc2nc3ccccc3n2CCCCF)c1=O | 7.44 | > 25900 |  |  | 
51 | CC(C)CCn1c(Cn2c(=O)n(C3CC3)c(=O)c3ccccc32)nc2cc(CN)ccc21 | 7.96 | 8580 |  |  | 
52 | CC(C)CCn1c(CN2C(=O)C(CC(=O)NCc3ccccc3)c3ccccc32)nc2ccccc21 (centres undefined) | 6.96 | 720 |  |  | 
53 | CC(C)CCn1c(Cn2c(=O)oc3ccccc32)nc2ccccc21 | 7.36 | 30700 |  |  | 
54 | CC(C)CCn1c(Cn2c(=O)n(C3CC3)c(=O)c3ccccc32)nc2cc(C(=O)O)ccc21 | < 4.16 | 102000 |  |  | 
55 | NCc1ccc2c(c1)nc(Cn1c(=O)n(C3CC3)c(=O)c3ccccc31)n2CCCCF | 8.05 | 40600 | < 6.30 | > 1.67 | 1.4
56 | COc1cc(=O)n(Cc2nc3cc(CN)ccc3n2CCCCO)c2ccccc12 | 8.10 | 81500 | < 6.30 |  | 
57 | O=c1c(O)cc2ccccc2n1Cc1nc2ccccc2n1CCCCF | < 3.56 | 20200 |  |  | 
58 | COC(=O)c1ccc(Cn2c(=O)c3ccccc3n(Cc3nc4ccccc4n3CCC(C)C)c2=O)cc1 | 6.59 | 11200 |  |  | 
59 | NCc1ccc2c(c1)nc(Cn1c(=O)n(C3CC3)c(=O)c3ccccc31)n2CCCCO | 7.74 | > 181000 | < 6.30 | > 1.67 | 0.45
60 | N#CCCCn1c(CN2C(=O)N(C3CC3)S(=O)(=O)c3ccccc32)nc2ccccc21 | 7.26 | > 244000 |  |  | 
61 | CCc1cc2ccccc2n(Cc2nc3ccccc3n2CCCCF)c1=O | 6.04 | 85100 |  |  | 
62 | CN1C(=O)N(Cc2nc3ccccc3n2CCCCF)c2ccccc2S1(=O)=O | 7.43 | 87700 |  |  | 
